Values of other authors, collected in EP0497915B1, “hPTH (1-37) FRAGMENT, ITS PRODUCTION, DRUG CONTAINING IT AND ITS USE” (HaemoPep Pharma GmbH, priority 1989, dated 1991).

How the values were obtained:
hPTH-(44-68)-RIA = details: commercial RIA (Immundiagnostik), manufacturer's data
hPTH-(53-84)-RIA = details: commercial RIA (Immundiagnostik), manufacturer's data

Molecule | Kreuzreaktion im hPTH-(44-68)-RIA (hPTH-(44-68)-RIA) | Kreuzreaktion im hPTH-(53-84)-RIA (hPTH-(53-84)-RIA)
hPTH-(1-34): bekanntes synthetisches N-terminales hPTH-Fragment (SVSEIQLMHNLGKHLNSMERVEWLRKKLQDVHNF; Parathyroid hormone; UniProt P01270 32-65, looked up, fragment) | keine Kreuzreaktion | keine Kreuzreaktion
hPTH-(28-48): synthetisches hPTH-Peptid (LQDVHNFVALGAPLAPRDAGS; Parathyroid hormone; UniProt P01270 59-79, looked up, fragment) | keine Kreuzreaktion | keine Kreuzreaktion
hPTH-(44-68): synthetisches hPTH-Peptid, Standard des mittelregionalen RIA (RDAGSQRPRKKEDNVLVESHEKSLG; Parathyroid hormone; UniProt P01270 75-99, looked up, fragment) | – | keine Kreuzreaktion
hPTH-(53-84): synthetisches hPTH-Peptid, Standard des C-terminalen RIA (KKEDNVLVESHEKSLGEADKADVNVLTKAKSQ; Parathyroid hormone; UniProt P01270 84-115, looked up, fragment) | 100% | –
hPTH-(64-84): synthetisches hPTH-Peptid (EKSLGEADKADVNVLTKAKSQ; Parathyroid hormone; UniProt P01270 95-115, looked up, fragment) | keine Kreuzreaktion | 100%
hPTH-(1-84): sezerniertes PTH-Molekül aus 84 Aminosäuren (peptide, UniProt P01270 32-115, looked up, Parathyroid hormone, sezerniertes PTH-Molekül aus 84 Aminosäuren) Parathyroid hormone: SVSEIQLMHNLGKHLNSMERVEWLRKKLQDVHNFVALGAPLAPRDAGSQRPRKKEDNVLVESHEKSLGEADKADVNVLTKAKSQ | 100% | 100%
